Experimental findings from patent US6919043B2, “Method of sterilization for container, apparatus using therefor and heat treatment for container” (Dai Nippon Printing Co., Ltd., priority 2002, dated 2005) are described below.

Read-outs that look alike come from different tables or passages of the source.

The subject of this assay is Bacillus subtilis spore. The conditions noted are these: rinsing 3 sec, log(adhesion bacilli/survival bacilli).

Method: Sterilization process was performed, changing the conditions of a detail according to the following procedure for PET bottle (bottle made from a polyethylene terephthalate) with a capacity of 500 ml.
The hot blast 3 was supplied to the interior of the bottle per minute 0.1 m from the nozzle with a bore of 10 mm, and the preheating of the bottle was carried out. The temperature of hot blast was set as 105° C.-125° C. near the nose of the nozzle, and the amount of insertions into the bottle of the nozzle was set as 30 mm. Simultaneously, the hot blast of 85° C. was turned and sprayed on the lip portion of a bottle by the flow rate of 3 per minute 0.1 m from the nozzle with a bore of 50 mm. In addition, the number of nozzles for the lip portion heating was two to one bottle. The blasting time of the hot blast from each nozzle was set up in 3 seconds. The temperature in the bottle after the hot blast supplying had reached 50° C.
The bottle was left for 0.5-3.5 seconds after the mist supplying. Then, the nozzle was inserted into the bottle and hot blast was blown for 1 second. The bore of the nozzle, the amount of insertions of the nozzle, and the temperature and the flow rate of the hot blast were the same as the preheating.
The bottle was left for 1-3.5 second after hot blast blowing in. Then, the bottle was inverted and was inserted the a nozzle a nozzle with a bore of 6 mm in the interior, and the bottle was rinsed for aseptic water which is heated by 70° C. for 3 seconds. The flow rate of aseptic water was 8.5 L/min.
Moreover, a part of process was omitted when sterilization process was performed.
About each of each sterilization conditions, five bottles with the Bacillus subtilis spore of 103, 104, and 105 was sterilized, the trypto-soy bouillon medium was distributed aseptically in the bottle, and the existence of culture and sterilization was evaluated. The bacterial number of survivals was computed by the most probable number (MPN: most probable number) in probability theory from the test result in each sterilization conditions, and the following formula estimated the sterilization effect in quest of the opposite numeric value of the number of adhesion bacilli, and the number of survival bacilli.
Sterilization effect=log (the number of adhesion bacilli/the number of survival bacilli).

In the case of `OO` [hydrogen peroxide], the Sterilization effect worked out at 6.5 (Condition 1: preheating 50 °C, mist 35 μl, leaving 3.5 sec, hot blast Yes, standing 1.0 sec); 5.5 (Condition 2: preheating 50 °C, mist 25 μl, leaving 3.5 sec, hot blast Yes, standing 1.0 sec); 5.0 (Condition 3: preheating 50 °C (neck portion not heated from the outside), mist 20 μl, leaving 3.5 sec, hot blast Yes, standing 1.0 sec); 4.5 (Condition 4: preheating 50 °C, mist 15 μl, leaving 3.5 sec, hot blast Yes, standing 1.0 sec); 5.5 (Condition 5: preheating 50 °C (neck portion heated from the exterior), mist 20 μl, leaving 3.5 sec, hot blast Yes, standing 1.0 sec); 3.0 (Condition 6: preheating No, mist 40 μl, leaving 3.5 sec, hot blast Yes, standing 1.0 sec). For the same compound, the Sterilization effect is on record as less than 2 (Condition 7: preheating No, mist 20 μl, leaving 3.5 sec, hot blast Yes, standing 1.0 sec); 3.0 (Condition 8: preheating 50 °C, mist 30 μl, leaving 0.5 sec, hot blast Yes, standing 3.5 sec); less than 2 (Condition 9: preheating 50 °C, mist 20 μl, leaving 0.5 sec, hot blast Yes, standing 3.5 sec); 4.0 (Condition 10: preheating 50 °C, mist 20 μl, leaving 3.5 sec, hot blast No, standing 1.0 sec); 3.0 (Condition 11: preheating 50 °C, mist 15 μl, leaving 3.5 sec, hot blast No, standing 1.0 sec).
